# Assay results taken from patent US12258424B2, “Polypeptides and compositions comprising the same” (priority 2020, dated 2025).
# Residues, ends and D or L forms follow the SMILES beside them.
# Experiments:
# mPD-L1 = mPD-L1 (Mus musculus, UniProt Q9EP73); test: Blockade of the mouse PD-1/PD-L1 interaction, mouse PD-L1 protein; type: binding; parameters: purchased G&P Biosciences FCL3502B (PD-L1); settings: mouse PD-L1 protein
# Protocol: (§1) Ninety-six-well plates were coated with 100 ng of PD-L1 protein (G&P Biosciences, human PD-L1 ECD, cat #FCL0784B. mouse PD-L1, cat #FCL3502B) and later blocked with 2% BSA for 2 hours at room temperature. Various concentrations of peptides were loaded into the wells and incubated for 1 hour at room temperature. […] Streptavidin-HRP (R & D systems) and chromogenic substrate were added into the wells. OD450 was then recorded and referenced to OD540.
# DU145 cancer cell = type: cell-based, human; settings: for IC50: 2 h; for Blocking Efficiency (%): DU-145 cancer cells
# Protocol: as §1
# The blocking efficiency of the anti-PD-L1 peptides at 10 μM (FIG. 2c). […] The IC50 of each peptide was also determined using recombinant human PD-L1 protein and DU-145 cancer cells.
# hPD-L1 [1] = target: T1, hPD-L1 (Homo sapiens, UniProt Q9NZQ7); test: Blockade of the PD-1/PD-L1 interaction, plate coated with human PD-L1 protein; type: binding; parameters: PD-L1 protein (G&P Biosciences, human PD-L1 ECD, cat #FCL0784B); purchased G&P Biosciences FCL0784B (PD-L1); settings: for Blocking Efficiency (%): human PD-L1 protein
# Protocol: as §1
# [2] = target: human PD-L1/CD80 interaction (Homo sapiens, UniProt Q9NZQ7); test: Blockade of the CD80/PD-L1 interaction; type: binding; settings: at 10 μM, FIG. 8a
# 4T1 cancer cell = type: cell-based, mouse; settings: for Blocking Efficiency (%): 4T1 cancer cell; for IC50: 2 h
# [3] = target: T2, recombinant human PD-L1 ECD protein (Homo sapiens, UniProt Q9NZQ7); test: SPR binding kinetics and affinity to immobilized human PD-L1; settings: for kon: read-out: Ka
# T2 construct: against the recombinant human PD-L1 ECD protein were evaluated using SPR; purchased G&P Biosciences FCL0784B
# Protocol: In such aspects, the equilibrium dissociate constant KD value against recombinant human PD-L1 can be determined according to an KD to PD-L1 SPR Assay. The KD to PD-L1 SPR Assay can include the use of Surface Plasmon Resonance (SPR), such as the B14500, Biosensing Instrument, and can include the following procedures. The PD-L1 protein can be diluted to 10 μg/mL with sodium acetate buffer (pH 5.0, GE Healthcare, PA) and covalently coated onto a CM5 sensor chip (CM Dextran Sensor Chip, Biosensing Instrument) using the standard Amine Coupling Kit (GE Healthcare, PA). Approximately 6500 RU of PD-L1 protein are immobilized onto the chip. A second channel is used as a reference. HBS-EP+ buffer (GE Healthcare) can be employed at a flow rate of 60 μL/min. A series of concentrations of each peptide (15, 30, 60, 125, 250, 500, 1000, 5000 and 10,000 nM) is prepared in HBS-EP+ running buffer to obtain the equilibrium dissociation constant (KD) values of the peptides. The CM5 sensor chip can be regenerated with 10 mM NaOH for 20 s. The results can be analyzed using the software of Bi data analysis software.
# Evaluation of Binding Kinetics and Affinity By Surface Plasmon Resonance (SPR). Binding affinities of the PD-L1 specific peptides for human PD-L1 protein were determined by SPR (B14500, Biosensing Instrument). PD-L1 protein was diluted to 10 μg/mL with sodium acetate buffer (pH 5.0, GE Healthcare, PA) and covalently coated onto a CM5 sensor chip (CM Dextran Sensor Chip, Biosensing Instrument) using the standard Amine Coupling Kit (GE Healthcare, PA). Approximately 6500 RU of PD-L1 protein were immobilized onto the chip. A second channel was used as a reference. HBS-EP+ buffer (GE Healthcare) was employed at a flow rate of 60 μL/min. A series of concentrations of each peptide (15, 30, 60, 125, 250, 500, 1000, 5000 and 10,000 nM) were prepared in HBS-EP+ running buffer to obtain the equilibrium dissociation constant (KD) values of the peptides. The CM5 sensor chip was regenerated with 10 mM NaOH for 20 seconds. The results were analyzed using the software of Bi data analysis software. Binding affinities of the anti-PD-L1 peptides to BSA was also assessed following the procedure for human PD-L1.
# hPD-L1 [4] = target: T1, hPD-L1; test: PD-1/PD-L1 inhibitor screening ELISA, human proteins; type: binding; parameters: purchased Acro Biosystems EP-101
# Protocol: (§2) Blocking efficiency at 10 μM/IC50 against human and mouse PD1/PD-L1 (ELISA). […] 100 ng of recombinant human PD-L1 protein was coated in 96-well plates at 4° C. for 16 h with shaking over an orbital shaker. Unbound protein was removed by washing twice with PBS (pH 7.2-7.4), 2% BSA was added for 1.5 h at 37° C. to block the plate. Specific concentrations of the peptides were dispensed into the appropriate wells and incubated for 2 h at 37° C. […] This was followed by the addition of streptavidin-HRP and chromogenic substrate (R & D systems). The color reaction was terminated with 2N H2SO4, absorbance was recorded at OD450 and referenced to OD540.
# PD1/PD-L1 = PD1/PD-L1 (Homo sapiens, UniProt Q9NZQ7); test: IC50 and blocking efficiency against PD1/PD-L1 (Table 5); type: binding
# Protocol: as §2
# [5] = Proteolytic stability in 50% human serum (LC-MS); type: in vitro ADME
# Protocol: Half-life in 50% human serum. Proteolytic stability of the peptides was investigated using LC-MS. Solutions of the anti-PD-L1 peptides were incubated with 50% human serum at […], aliquots were taken at specific time points for processing and subsequent LC-MS analysis.
# [6] = system: CT26 colorectal tumor-bearing mouse model; test: Anti-tumor activity in CT26 tumor-bearing Balb/C mice; type: in vivo
# Excerpt: (§3) Animal Study. The animal protocol was approved by the University of Missouri-Kansas City, Institutional Animal Care and Use Committee (IACUC). Five-week old male and female Balb/c mice were purchased from Charles Rivers Laboratories (Wilmington, Mass.) and housed in a temperature and humidity controlled room on a 12-hour light-dark cycle. Approximately 5×10^5 CT26 cells were subcutaneously injected into the right flank. The mice were randomly divided into five different groups (10 mice/group, 50% female, 50% male). The mice were intraperitoneally injected with 2 mg/kg peptide daily when the tumor size reached 50-100 mm^3. The anti-mouse PD-L1 antibody (10F.9G2, BioXcell) was administrated as a positive control at a dose of 10 mg/kg every two days. The tumor size was assessed with a caliper and calculated with the formula 0.5×length×width^2. ELISA kits of PD-L1 (Cat #DY1019-05), IFNγ (Cat #DY485-05), and IL-6 (Cat #DY406-05) were used to measure the expressions of PD-L1, IFNγ, and IL-6, respectively, in tumors as per the company's instructions (R & D Systems, Minneapolis, MN).
# The anti-mouse PD-L1 antibody (BioXcell, 10F.9G2) was administered intraperitoneally every other day at 10 mg/kg. […] In general, CLP002 (SEQ ID NO:2) exerted a better tumor inhibitory effect than CLP003 (SEQ ID NO:3), which was similar to the antibody. […] In FIG. 6e the weight of the tumors harvested at day 14 is shown. The results were represented as the mean±SD (n=10). It is noteworthy that the peptides were screened against the human PD-L1 protein, which, in fact, would compromise the anti-tumor activity of the peptides in a mouse model.
# [7] = system: CT26 tumor-bearing Balb/C mice; test: Survival of CT26 tumor-bearing Balb/C mice; type: in vivo, mouse
# Excerpt: as §3
# In this Example, mice were intraperitoneally injected with the CLP002 (SEQ ID NO:2) and CLP003 (SEQ ID NO:3) peptides daily or the anti-mouse PD-L1 antibody every other day from day 4 to day 17 (see survival curves in FIG. 7a). Specifically, CT26 tumor-bearing Balb/C mice (n=10, 5 male and 5 female) were intraperitoneally injected with the anti-PD-L1 peptides (2 mg/Kg) daily and the anti-mouse PD-L1 antibody (10 mg/Kg) every other day from day 4 to day 17. GraphPad Prism 7 software (San Diego, Calif.) was used for statistical analysis. Comparison of two survival curves were conducted using the Gehan-Breslow-Wilcoxon test. […] By contrast, only 20% of the mice in the CLP002 (SEQ ID NO:2) group were dead by day 17.
# [8] = system: CD8+ T cells in CT26 tumor tissues; test: IHC staining of CD8+ T cells in CT26 tumor tissues; type: in vivo, mouse
# Protocol: Immunohistochemistry (IHC) Staining. Tumor tissues were fixed in 10% formalin, embedded in paraffin, sectioned, and mounted on glass slides by Truman Medical Centers Anatomic Pathology Core (Kansas City, MO). The slides were heated in Tris buffer (pH 9.0) for 45 min to recover antigen. After deparaffinization and rehydration, the sections were stained with the anti-mouse CD8 alpha antibody (Abcam, ab209775) overnight at 4° C. The slides were incubated with a biotinylated goat anti-rabbit secondary antibody, followed by the DAB chromogen mixture. Four sections (2 male and 2 female) were imaged in each group. For each section, 3 regions were randomly selected for imaging.
# [9] = system: IFNγ, PD-L1 and IL-6 in CT26 tumors; test: ELISA of IFNγ, PD-L1 and IL-6 in harvested CT26 tumors; type: in vivo, mouse
# Excerpt: as §3
# [10] = system: Jurkat T cells co-cultured with DU-145 cancer cells; test: Jurkat T cell proliferation in co-culture with DU-145 cells (CellTiter-Glo); type: cell-based, human; settings: peptide 5 μM, 24 hours
# Protocol: Proliferation and Apoptosis Assays. […] Briefly, 3×10^4 Jurkat T cells were cultured alone or co-cultured with 1.5×10^5 DU-145 cancer cells in a 24-well plate for the proliferation assay. For the apoptosis assay, 6×10^4 Jurkat T cells were cultured alone or co-cultured with 3×10^5 DU-145 cancer cells in a 6-well plate. After incubation with the anti-PD-L1 peptides (5 μM) or anti-PD-L1 antibody (1 μM) for 24 hours, Jurkat T cells were harvested from the supernatant. Proliferation of Jurkat cells was determined using the CellTiter-Glo luminescent cell viability assay (Promega, WI), and apoptosis of the cells were determined using the Dead Cell Apoptosis Kit with Annexin V Alexa Fluor® 488 and Propidium Iodide (Thermo-Fisher Scientific, Pittsburgh, PA) as we described before^21.
# mPD-L1, sequence (Q9EP73 19-239 limits assumed): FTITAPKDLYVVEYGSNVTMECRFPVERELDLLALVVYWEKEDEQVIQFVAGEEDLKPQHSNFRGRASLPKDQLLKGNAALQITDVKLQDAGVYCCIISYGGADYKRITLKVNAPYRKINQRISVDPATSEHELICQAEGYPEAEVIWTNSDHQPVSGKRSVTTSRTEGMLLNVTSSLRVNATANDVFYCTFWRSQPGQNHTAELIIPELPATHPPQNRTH
# T2 sequence (Q9NZQ7 19-238 limits assumed): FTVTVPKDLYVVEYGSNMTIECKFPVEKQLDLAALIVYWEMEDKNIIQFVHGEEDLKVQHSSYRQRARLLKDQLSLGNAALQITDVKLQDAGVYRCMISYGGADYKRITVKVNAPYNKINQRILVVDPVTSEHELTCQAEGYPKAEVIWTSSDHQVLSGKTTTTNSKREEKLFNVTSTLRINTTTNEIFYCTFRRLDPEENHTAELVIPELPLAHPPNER
# T1 sequence (Q9NZQ7 19-238 limits assumed): as above
# human PD-L1/CD80 interaction, sequence (Q9NZQ7 19-238 limits assumed): as above
# PD1/PD-L1, sequence (Q9NZQ7 19-238 limits assumed): as above
smiles,measurement,setting,value
CC(C)C[C@H](NC(=O)[C@@H](NC(=O)[C@@H]1CCCN1C(=O)[C@H](CC(C)C)NC(=O)[C@H](CO)NC(=O)[C@@H]1CCCN1C(=O)[C@H](CC(=O)O)NC(=O)[C@H](Cc1c[nH]cn1)NC(=O)[C@H](Cc1ccc(O)cc1)NC(=O)[C@@H](N)CC(=O)O)[C@@H](C)O)C(=O)N[C@@H](CCCNC(=N)N)C(=O)N[C@@H](CCCCN)C(=O)O [CLP004] (H-DYHDPSLPTLRK-OH; N-terminus and C-terminus assumed),Blocking Efficiency (%),mPD-L1,48%
same,IC50,mPD-L1,1910 nM
same,IC50,DU145 cancer cell,200 nM
same,Blocking Efficiency (%),DU145 cancer cell,60%
same,Blocking Efficiency (%),hPD-L1 [1],52%
same,Blocking efficiency against CD80/PD-L1 interaction,[2],~27%
same,Blocking Efficiency (%),4T1 cancer cell,34%
same,IC50,4T1 cancer cell,730 nM
same,kon,[3],5140 M⁻¹ s⁻¹
C[C@@H](O)[C@H](NC(=O)[C@H](Cc1ccc(O)cc1)NC(=O)[C@H](Cc1ccc(O)cc1)NC(=O)[C@H](CO)NC(=O)[C@H](CCCNC(=N)N)NC(=O)[C@H](Cc1c[nH]cn1)NC(=O)[C@@H](N)Cc1c[nH]c2ccccc12)C(=O)N[C@@H](Cc1c[nH]c2ccccc12)C(=O)N[C@@H](CC(N)=O)C(=O)O [CLP2TR3] (H-WHRSYYTWN-OH; N-terminus and C-terminus assumed),% Blocking efficiency at 10 μM (ELISA) hPD-L1,hPD-L1 [4],80%
same,% Blocking efficiency at 10 μM,PD1/PD-L1,80%
same,half-life,[5],15 min
CC(C)C[C@H](NC(=O)[C@H](Cc1c[nH]c2ccccc12)NC(=O)[C@H](CCCNC(=N)N)NC(=O)[C@H](Cc1c[nH]c2ccccc12)NC(=O)[C@H](CC(N)=O)NC(=O)[C@H](Cc1ccc(O)cc1)NC(=O)[C@H](CO)NC(=O)[C@H](Cc1ccccc1)NC(=O)[C@H](Cc1c[nH]cn1)NC(=O)[C@@H](N)Cc1c[nH]c2ccccc12)C(=O)N1CCC[C@H]1C(=O)N1CCC[C@H]1C(=O)O [CLP003] (H-WHFSYNWRWLPP-OH; N-terminus and C-terminus assumed),Tumor growth,"[6]; peptides 2 mg/kg i.p. daily, antibody 10 mg/kg i.p. every other day",effectively suppressed tumor growth
same,Tumor weights at day 14,[6]; versus saline group,significantly smaller than the saline group
same,Tumor growth in the survival study,"[7]; Example 7, individual growth curves",other mice experienced a rapid tumor progression
same,Mice died on day 17 (in words),[7]; n=10,only one mouse died on day 17
same,Survival of tumor-bearing mice,[7]; treatment from day 4 to day 17,modestly improved the survival
same,IC50,DU145 cancer cell,3050 nM
same,Blocking Efficiency (%),DU145 cancer cell,56%
same,Density of CD8+ T cells in tumor tissues,[8],significantly increased
same,IC50,hPD-L1 [1]; plate coated with human PD-L1 protein,2220 nM
same,Blocking Efficiency (%),4T1 cancer cell,50%
same,IC50,4T1 cancer cell,1000 nM
same,Kd,[3],117 nM
same,kon,[3],22600 M⁻¹ s⁻¹
same,IL-6 expression in tumor tissues,[9],decreased expression of IL-6
C[C@H](NC(=O)[C@H](CCC(N)=O)NC(=O)[C@H](CC(N)=O)NC(=O)[C@H](C)NC(=O)[C@H](Cc1c[nH]cn1)NC(=O)[C@@H]1CCCN1C(=O)[C@H](CCCNC(=N)N)NC(=O)[C@H](Cc1ccccc1)NC(=O)[C@@H]1CCCN1C(=O)[C@H](Cc1ccc(O)cc1)NC(=O)[C@@H](N)Cc1c[nH]cn1)C(=O)N[C@@H](CO)C(=O)O [CLP001] (H-HYPFRPHANQAS-OH; N-terminus and C-terminus assumed),Blocking Efficiency (%),mPD-L1,34%
same,Blocking Efficiency (%),DU145 cancer cell,0%
same,Effect on Jurkat T cell proliferation,[10],did not observe the same effect
same,Blocking Efficiency (%),hPD-L1 [1],0%
same,Blocking of the human PD-1/PD-L1 interaction (in words),"hPD-L1 [1]; peptides at 10 μM, FIG. 2c",did not block
same,Blocking efficiency against CD80/PD-L1 interaction,[2],approximately 17%
same,Blocking Efficiency (%),4T1 cancer cell,35%
same,IC50,4T1 cancer cell,910 nM
same,kon,[3],5190 M⁻¹ s⁻¹
